Results: patent US8372836B2, “Spray dried formulation” (Bend Research, Inc., priority 2006, dated 2013)
In brackets after ≈: the same amount, converted by molar mass. Like-named read-outs stand apart in the source and are kept apart here.

Assays:
[1] = Solubility in volatile organic solvents; assay type: physicochemical; conditions: for solubility: organic solvent or mixture
Excerpt: The drug is poorly soluble in volatile organic solvents. By “volatile organic solvent” is meant a solvent selected from the group consisting of acetone, methanol, tetrahydrofuran, ethyl acetate, mixtures of any one of these with water, and mixtures of these with each other. […] As used herein, the solubility is assumed to be measured at ambient temperature and pressure.

Acidic pKa = assay type: physicochemical; conditions: for pKa: distilled water
[2] = In vitro dissolution test of Drug 1 dispersions in MFD solution; assay type: physicochemical; conditions: 37° C.
Experimental: For these tests, suspensions were formed by adding a sufficient quantity of the dispersions of Example 1 or Example 2 to water containing 0.5 wt % Methocel Type A such that each suspension contained 7.2 mgA/mL Drug 1. Next, a 50 μL sample of each suspension was added to microcentrifuge tubes in duplicate. […] HPLC analysis was performed using an Zorbax RX-C18 4.6×75 mm […] column, with a mobile phase of 63/37 v/v aqueous 0.1 wt % trifluoroacetic acid/acetonitrile, and UV absorbance measured at 220 nm.
The concentrations of dissolved Drug 1 obtained in these samples were used to determine the maximum dissolved concentration of Drug 1 in solution during the first ninety minutes of the test (MDC90), the area under the concentration-versus-time curve during the initial ninety minutes (“AUC90”), and the concentration of Drug 1 at 1200 minutes (“C1200”).

[3] = Aqueous solubility of neutral form of drug (MFD or PBS solution, pH 6.5); assay type: physicochemical
[4] = In vitro dissolution test of Drug 2 dispersion in MFD solution; assay type: physicochemical; conditions: 37° C.
[5] = dissolved Drug 3; dispersion pre-suspended in 0.5 wt % Methocel A + 15 mg/mL HPMCAS-HF in PBS, then MFD; 200 μgA/mL dosed; Control 3 as in Example 5 test
[6] = In vitro dissolution test of Drug 3 dispersion in MFD solution; assay type: physicochemical; conditions: dissolved Drug 3, initial 90 min; MFD solution pH 6.5, 37° C., 200 μgA/mL dosed

| solubility ([1]; acetone, read-out: solubility in acetone) | solubility in methanol ([1]; crystalline neutral form, methanol) | solubility ([1]; methanol, read-out: solubility in methanol) | pKa (Acidic pKa) | C1200 ([2]; Drug 1 concentration at 1200 minutes) | MDC90 ([2]; dissolved Drug 1, first 90 min, 200 μgA/mL dosed) | AUC90 ([2]; dissolved Drug 1, initial 90 min, 200 μgA/mL dosed) | solubility ([3]; fassif, MFD solution pH 6.5, read-out: solubility in a pH 6.5 MFD solution) | C1200 ([4]; Drug 2 concentration at 1200 minutes) | AUC90 ([4]; dissolved Drug 2, initial 90 min, 200 μgA/mL dosed) | SMILES | solubility ([1]; THF, 25° C., neutral form, read-out: solubility in THF at 25° C.) | solubility ([1]; acetone, 25° C., neutral form, read-out: solubility in acetone at 25° C.) | solubility ([1]; methanol, 25° C., neutral form, read-out: solubility in methanol at 25° C.) | acidic pKa (Acidic pKa) | AUC90 [5] | MDC90 [5] | solubility ([3]; phosphate buffered saline, aqueous buffer, PBS pH 6.5, read-out: solubility in phosphate buffered saline solution at pH of 6.5) | AUC90 [6] | MDC90 [6] |
| --- | --- | --- | --- | --- | --- | --- | --- | --- | --- | --- | --- | --- | --- | --- | --- | --- | --- | --- | --- |
| 0.025 mg/mL (≈ 73.9 µM) | about 0.059 mgA/mL | 0.059 mg/mL (≈ 174 µM) | 7.3 | <0.1 µg/mL | 1 µg/mL | <88 µg·min/mL | ~0.003 mg/mL (≈ 8.87 µM) |  |  | Nc1nc(C(=O)NCC2CC2)nc2c1[nH]c(=O)n2Cc1ccccc1 [Drug 1, 6-amino-9-benzyl-8-oxo-8,9-dihydro-7H-purine-2-carboxylic acid cyclopropylmethyl-amide] |  |  |  |  |  |  |  |  |  |
|  |  |  | 11.3 |  |  |  |  | 1.0 µg/mL | 44 µg·min/mL | Nc1nc(C(F)(F)F)cc2c1[nH]c(=O)n2Cc1ccccc1 [Drug 2, 4-amino-1-benzyl-6-trifluoromethyl-1,3-dihydro-imidazo[4,5-c]pyridine-2-one] |  |  |  |  |  |  |  |  |  |
|  |  |  |  |  |  |  |  |  |  | Cc1c(S(=O)(=O)c2ccc(=O)[nH]n2)oc2ccc(Cl)cc12 [Drug 3, 6-(5-chloro-3-methyl-benzofuran-2-sulfonyl)-2H-pyridazin-3-one] | ~12 mg/mL (≈ 37000 µM) | ~4.7 mg/mL (≈ 14500 µM) | ~1.5 mg/mL (≈ 4620 µM) | 6.9 | 540 min*μgA/mL | 8 μgA/mL | < 0.001 mg/mL | 540 min*μgA/mL | 8 μgA/mL |
